# Laboratory results taken from PubChem BioAssay AID322 (DTP/NCI, 2004).
# Several values for one entry are separate records, joined by “and”; a condition that tells them apart may be missing. Equal values may be shown once. Inconclusive results and toxic doses are left out.
# Tested on: CD2F1 mice, P388/ADR leukemia ip, median survival T/C
# Assay: NCI In Vivo Anticancer Drug Screen. Data for tumor model P388 Leukemia resistant to Adriamycin; NSC 123127, Developed at Scr 08 (intraperitoneal) in CD2F1 (CDF1) mice
# Settings: endpoint: median survival time, higher = longer survival
# Procedure: The antitumor activity of compounds was measured in mice bearing transplantable tumors. Survival or tumor size were measured and the results are expressed as the measurement made in the treated group (T) divided by the measurement made in the vehicle treated control group (C). The tumor model used in this assay is P388 Leukemia resistant to Adriamycin; NSC 123127, Developed at Scr 08 (intraperitoneal) in CD2F1 (CDF1) mice
# [1] = dose: 25.0 mg/kg/injection, schedule: Q01DX005 (ip), vehicle: Klucel (hydroxypropylcellulose) (HPC)
# [2] = dose: 36.0 mg/kg/injection, schedule: Q01DX005 (ip), vehicle: Klucel (hydroxypropylcellulose) (HPC)
# [3] = dose: 60.0 mg/kg/injection, schedule: Q01DX005 (ip), vehicle: Klucel (hydroxypropylcellulose) (HPC)
# [4] = dose: 100.0 mg/kg/injection, schedule: Q01DX005 (ip), vehicle: Klucel (hydroxypropylcellulose) (HPC)
# [5] = dose: 200.0 mg/kg/injection, schedule: Q01DX005 (ip), vehicle: Klucel (hydroxypropylcellulose) (HPC)
# [6] = dose: 12.5 mg/kg/injection, schedule: Q01DX005 (ip), vehicle: saline with Tween-80
# [7] = dose: 25.0 mg/kg/injection, schedule: Q01DX005 (ip), vehicle: saline with Tween-80
# [8] = dose: 50.0 mg/kg/injection, schedule: Q01DX005 (ip), vehicle: saline with Tween-80
# [9] = dose: 44.0 mg/kg/injection, schedule: Q01DX009 (ip), vehicle: saline
# [10] = dose: 67.0 mg/kg/injection, schedule: Q01DX009 (ip), vehicle: saline
# [11] = dose: 100.0 mg/kg/injection, schedule: Q01DX009 (ip), vehicle: saline
# [12] = dose: 150.0 mg/kg/injection, schedule: Q01DX009 (ip), vehicle: saline
smiles,measurement,setting,value
C=C1c2cccc(O)c2C(O)=C2C(=O)[C@]3(O)C(O)=C(C(N)=O)C(=O)[C@@H](N(C)C)[C@@H]3[C@@H](O)[C@H]12,T/C,"dose: 21.6 mg/kg/injection, schedule: Q01DX005 (ip), vehicle: Klucel (hydroxypropylcellulose) (HPC)",114 % of control
same,T/C,[1],109 % of control
same,T/C,[2],97 % of control and 100 % of control
same,T/C,"dose: 50.0 mg/kg/injection, schedule: Q01DX005 (ip), vehicle: Klucel (hydroxypropylcellulose) (HPC)",118 % of control
same,T/C,[3],226 % of control and 100 % of control
same,T/C,[4],99 % of control and 112 % of control
same,T/C,"dose: 166.66 mg/kg/injection, schedule: Q01DX005 (ip), vehicle: Klucel (hydroxypropylcellulose) (HPC)",117 % of control
same,T/C,[5],119 % of control
COc1cc2c(c3c1c(=O)c1ccccc1n3C)C=CC(C)(C)O2,T/C,[6],115 % of control
same,T/C,[7],87 % of control
same,T/C,[8],90 % of control
CN=C(NC)c1ccc(NC(=O)/C=C\c2ccc(/C=C/C(=O)Nc3ccc(C(=NC)NC)cc3)cc2)cc1,T/C,"dose: 1.56 mg/kg/injection, schedule: Q01DX005 (ip), vehicle: Klucel (hydroxypropylcellulose) (HPC)",107 % of control
same,T/C,"dose: 3.12 mg/kg/injection, schedule: Q01DX005 (ip), vehicle: Klucel (hydroxypropylcellulose) (HPC)",109 % of control
same,T/C,"dose: 6.25 mg/kg/injection, schedule: Q01DX005 (ip), vehicle: Klucel (hydroxypropylcellulose) (HPC)",116 % of control
COc1cccc2c1C(=O)c1c(O)c3c(c(O)c1C2=O)C[C@@](O)(C(=O)CO)C[C@@H]3OC1CC(N2CCOCC2C#N)C(O)C(C)O1 (stereo not given in full),T/C,"dose: 9.38 micrograms/kg/injection, schedule: Q04DX003 (ip), vehicle: saline with Tween-80",173 % of control and 175 % of control
same,T/C,"dose: 15.0 micrograms/kg/injection, schedule: Q04DX003 (iv), vehicle: saline + alcohol",107 % of control
same,T/C,"dose: 22.0 micrograms/kg/injection, schedule: Q04DX003 (iv), vehicle: saline + alcohol",99 % of control
same,T/C,"dose: 33.0 micrograms/kg/injection, schedule: Q04DX003 (iv), vehicle: saline + alcohol",88 % of control
same,T/C,"dose: 37.5 micrograms/kg/injection, schedule: Q04DX003 (ip), vehicle: saline with Tween-80",160 % of control
COc1ccc2[nH]c3ccc4cc[n+](CCN5CCC(C6CCN(CC[n+]7ccc8ccc9[nH]c%10ccc(OC)cc%10c9c8c7)CC6)CC5)cc4c3c2c1,T/C,"dose: 2.0 mg/kg/injection, schedule: Q01DX005 (ip), vehicle: water",119 % of control
same,T/C,"dose: 4.0 mg/kg/injection, schedule: Q01DX005 (ip), vehicle: water",123 % of control
same,T/C,"dose: 8.0 mg/kg/injection, schedule: Q01DX005 (ip), vehicle: water",152 % of control
same,T/C,"dose: 16.0 mg/kg/injection, schedule: Q01DX005 (ip), vehicle: water",158 % of control
same,T/C,"dose: 32.0 mg/kg/injection, schedule: Q01DX005 (ip), vehicle: water",163 % of control
CN(C)[C@@H]1C(=O)C(C(=O)NCN2CCN(C(=N)N=C(N)N)CC2)=C(O)[C@@]2(O)C(=O)C3=C(O)c4c(O)cccc4[C@@](C)(O)[C@H]3C[C@@H]12,T/C,"dose: 0.62 mg/kg/injection, schedule: Q01DX005 (ip), vehicle: saline",113 % of control
same,T/C,"dose: 1.25 mg/kg/injection, schedule: Q01DX005 (ip), vehicle: saline",100 % of control
same,T/C,"dose: 1.8 mg/kg/injection, schedule: Q01DX005 (ip), vehicle: suspension in saline",97 % of control
same,T/C,"dose: 2.5 mg/kg/injection, schedule: Q01DX005 (ip), vehicle: saline",106 % of control
same,T/C,"dose: 3.0 mg/kg/injection, schedule: Q01DX005 (ip), vehicle: suspension in saline",115 % of control
same,T/C,"dose: 5.0 mg/kg/injection, schedule: Q01DX005 (ip), vehicle: saline",152 % of control
same,T/C,"dose: 5.0 mg/kg/injection, schedule: Q01DX005 (ip), vehicle: suspension in saline",107 % of control
O=C1CN(CCN2CC(=O)N(CN3CCOCC3)C(=O)C2)CC(=O)N1CN1CCOCC1,T/C,"dose: 12.5 mg/kg/injection, schedule: Q01DX005 (ip), vehicle: water",107 % of control
same,T/C,"dose: 25.0 mg/kg/injection, schedule: Q01DX005 (ip), vehicle: water",105 % of control
same,T/C,"dose: 50.0 mg/kg/injection, schedule: Q01DX005 (ip), vehicle: water",96 % of control
same,T/C,"dose: 100.0 mg/kg/injection, schedule: Q01DX005 (ip), vehicle: water",100 % of control
N=C(N)c1ccc(N=NNc2ccc(C(=N)N)cc2)cc1,T/C,[6],105 % of control
same,T/C,[7],115 % of control
same,T/C,[8],117 % of control
CCOc1ccc(C(C)c2cc3c(cc2OC)OCO3)cc1 (stereo not given),T/C,"dose: 25.0 mg/kg/injection, schedule: Q01DX005 (ip), vehicle: distilled water + Tween-80",110 % of control
same,T/C,"dose: 50.0 mg/kg/injection, schedule: Q01DX005 (ip), vehicle: distilled water + Tween-80",100 % of control
same,T/C,"dose: 72.0 mg/kg/injection, schedule: Q01DX005 (ip), vehicle: distilled water + Tween-80",117 % of control
same,T/C,"dose: 100.0 mg/kg/injection, schedule: Q01DX005 (ip), vehicle: distilled water + Tween-80",113 % of control
same,T/C,"dose: 120.0 mg/kg/injection, schedule: Q01DX005 (ip), vehicle: distilled water + Tween-80",118 % of control
same,T/C,"dose: 200.0 mg/kg/injection, schedule: Q01DX005 (ip), vehicle: distilled water + Tween-80",167 % of control and 184 % of control
same,T/C,"dose: 333.33 mg/kg/injection, schedule: Q01DX005 (ip), vehicle: distilled water + Tween-80",165 % of control and 176 % of control
COc1cc([C@@H]2c3cc4c(cc3[C@@H](OC3OC5COC(C)OC5C(O)C3O)[C@H]3COC(=O)[C@H]23)OCO4)cc(OC)c1O (stereo not given in full),T/C,"dose: 18.0 mg/kg/injection, schedule: Q04DX003 (ip), vehicle: Klucel (hydroxypropylcellulose) (HPC)",113 % of control
same,T/C,"dose: 27.0 mg/kg/injection, schedule: Q04DX003 (ip), vehicle: Klucel (hydroxypropylcellulose) (HPC)",119 % of control
same,T/C,"dose: 40.0 mg/kg/injection, schedule: Q04DX003 (ip), vehicle: Klucel (hydroxypropylcellulose) (HPC)",110 % of control
CN(Cc1cnc2nc(N)nc(N)c2n1)c1ccc(C(=O)N[C@@H](CCC(=O)O)C(=O)O)cc1,T/C,"dose: 0.38 mg/kg/injection, schedule: Q01DX005 (ip), vehicle: sodium bicarbonate",122 % of control
same,T/C,"dose: 0.75 mg/kg/injection, schedule: Q01DX005 (ip), vehicle: sodium bicarbonate",155 % of control
same,T/C,"dose: 1.5 mg/kg/injection, schedule: Q01DX005 (ip), vehicle: sodium bicarbonate",179 % of control
same,T/C,"dose: 3.0 mg/kg/injection, schedule: Q01DX005 (ip), vehicle: sodium bicarbonate",191 % of control and 195 % of control
O=C(O)CCCc1ccc(N(CCCl)CCCl)cc1,T/C,"dose: 1.25 mg/kg/injection, schedule: Q01DX005 (ip), vehicle: saline with Tween-80",120 % of control
same,T/C,"dose: 10.0 mg/kg/injection, schedule: Q01DX005 (ip), vehicle: saline with Tween-80",205 % of control
CN1CCN(c2ccc3nc(-c4ccc5nc(-c6ccc(O)cc6)[nH]c5c4)[nH]c3c2)CC1,T/C,[9],118 % of control
same,T/C,[10],109 % of control
same,T/C,[11],105 % of control
same,T/C,[12],103 % of control
Nc1ncn(C2OC(CO)C(O)C2O)c(=O)n1 (stereo not given),T/C,"dose: 30.0 mg/kg/injection, schedule: Q01DX009 (ip), vehicle: saline",232 % of control and 246 % of control
same,T/C,"dose: 44.0 mg/kg/injection, schedule: Q01DX005 (ip), vehicle: saline",183 % of control
same,T/C,[9],248 % of control and 261 % of control
same,T/C,"dose: 67.0 mg/kg/injection, schedule: Q01DX005 (ip), vehicle: saline",189 % of control
same,T/C,[10],253 % of control and 280 % of control
same,T/C,"dose: 100.0 mg/kg/injection, schedule: Q01DX005 (ip), vehicle: saline",210 % of control
same,T/C,[11],263 % of control and 270 % of control
same,T/C,"dose: 150.0 mg/kg/injection, schedule: Q01DX005 (ip), vehicle: saline",206 % of control
same,T/C,[12],277 % of control and 296 % of control
same,T/C,"dose: 200.0 mg/kg/injection, schedule: Q01DX005 (ip), vehicle: saline",207 % of control
[N-]=[N+]=CC(=O)CCC(NC(=O)OCc1ccccc1)C(=O)OCc1ccccc1 (stereo not given),T/C,"dose: 12.5 mg/kg/injection, schedule: Q01DX005 (ip), vehicle: Klucel (hydroxypropylcellulose) (HPC)",115 % of control
same,T/C,[1],117 % of control
same,T/C,[2],100 % of control
same,T/C,[3],112 % of control
same,T/C,[4],166 % of control
same,T/C,[5],165 % of control
same,T/C,"dose: 278.0 mg/kg/injection, schedule: Q01DX005 (ip), vehicle: Klucel (hydroxypropylcellulose) (HPC)",155 % of control
